The values below come from paper PMC12856317, “A reversible feedback mechanism regulating mitochondrial heme synthesis” (The Journal of Biological Chemistry, 2025).

For the experiment, the target named is T1, WT holoALAS2 (residues 54–587) (Homo sapiens, UniProt P22557).
T1 construct: His6-SUMO (N, cleaved yes); made in house; host or cells: Escherichia coli BL21-Codon Plus (DE3)-RIL
T1 sequence (P22557 54-587): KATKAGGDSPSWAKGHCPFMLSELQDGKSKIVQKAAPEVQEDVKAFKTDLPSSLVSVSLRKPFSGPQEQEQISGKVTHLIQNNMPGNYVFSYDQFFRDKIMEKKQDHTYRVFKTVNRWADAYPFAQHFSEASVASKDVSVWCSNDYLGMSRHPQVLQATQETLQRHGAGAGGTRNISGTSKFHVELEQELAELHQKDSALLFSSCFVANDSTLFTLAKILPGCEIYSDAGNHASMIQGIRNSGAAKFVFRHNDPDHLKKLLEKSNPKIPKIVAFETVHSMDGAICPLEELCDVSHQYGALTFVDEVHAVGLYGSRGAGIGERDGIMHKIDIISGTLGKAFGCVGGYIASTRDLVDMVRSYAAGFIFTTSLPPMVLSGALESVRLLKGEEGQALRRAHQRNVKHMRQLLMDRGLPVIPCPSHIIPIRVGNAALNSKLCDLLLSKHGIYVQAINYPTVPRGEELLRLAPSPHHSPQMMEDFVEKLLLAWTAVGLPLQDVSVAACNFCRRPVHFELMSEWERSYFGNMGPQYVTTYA
Briefly: Succinyl-CoA:hemin competition analysis. The settings on record: succinyl-CoA varied; for Km: 95% confidence interval in brackets. In kind it is biochemical. The method, then:
A discontinuous colorimetric activity assay adapted from Shoolingin-Jordan et al. and Bailey et al. was used to measure the enzyme activity ([48], [74]). The reaction was initiated by adding 100 nM purified enzyme to 50 mM potassium phosphate, pH 7.0, 10 mM MgCl2, 1 mM DTT, 100 mM glycine, and 300 μM succinyl-CoA (175 μl total). The reaction was incubated at 37 °C for 15 min and terminated with 100 μl of cold 10% trichloroacetic acid. The precipitated protein was removed by centrifugation for 5 min at 13,000g, and 240 μl of the supernatant was mixed with 240 μl of 1 M sodium acetate, pH 4.6. To derivatize ALA, 20 μl of acetylacetone was added to the mixture and boiled at 100 °C for 10 min. After the sample was cooled for 20 min, 100 μl aliquots were transferred into a clear 96-well plate in triplicate. An equal volume of Ehrlich’s reagent (p-Dimethylaminobenzaldehyde, DMAB) was added to each well, and the absorbance was monitored at 553 nm using a microplate reader (Thermo Fisher Scientific). The peak absorbance value was converted to molar ALA concentration using ε553 = 60,400 M^−1 cm^−1.
For inhibitor competition experiments, the apoenzymes were preincubated with hemin or PLP (0–100 μM) for 15 min at 25 °C in the dark before initiating the reaction. Next, either PLP or hemin (0–100 μM) was titrated into the reactions to measure enzyme activation after hemin inhibition or enzyme inhibition of the PLP-treated apoenzyme, respectively. For succinyl-CoA:hemin competition analyses, the WT holoenzyme was mixed with hemin (0, 25, 50, and 100 μM), followed by the addition of increasing succinyl-CoA concentrations (0, 25, 50, 100, 250, and 500 μM). All experiments were performed with a minimum of three biological replicates, each with three technical replicates. Data were fit using nonlinear regression to generate an agonist dose-response curve (EC50) or an inhibitor dose-response curve (IC50). Lineweaver-Burk analysis was performed using the resulting kinetic parameters (Vmax and KM) in GraphPad Prism 10.

One may read the Km as the substrate concentration at which the rate is half of its maximum. Consider succinyl-CoA, for which the Vmax is, setting by setting: (hemin 0 μM) 337.15 [445.63, 271.22] nmol/min/mg; (hemin 25 μM) 109.04 [132.82, 92.51] nmol/min/mg; (hemin 50 μM) 45.98 [63.13, 36.15] nmol/min/mg; (hemin 100 μM) 37.50 [60.98, 27.07] nmol/min/mg. Also, the Km runs as follows: (hemin 0 μM) 178 µM; (hemin 25 μM) 54.8 µM; (hemin 50 μM) 46.2 µM; (hemin 100 μM) 39.2 µM.
